The values below come from ChEMBL document CHEMBL1148319, “A molecular basis for the selectivity of thiadiazole urea inhibitors with stromelysin-1 and gelatinase-A from generalized born molecular dynamics simulations” (J Med Chem, 2004).

Each structure is given as a SMILES string.

This assay concerns the target 72 kDa type IV collagenase (Homo sapiens, UniProt P08253).

Chain of 72 kDa type IV collagenase (P08253 whole entry): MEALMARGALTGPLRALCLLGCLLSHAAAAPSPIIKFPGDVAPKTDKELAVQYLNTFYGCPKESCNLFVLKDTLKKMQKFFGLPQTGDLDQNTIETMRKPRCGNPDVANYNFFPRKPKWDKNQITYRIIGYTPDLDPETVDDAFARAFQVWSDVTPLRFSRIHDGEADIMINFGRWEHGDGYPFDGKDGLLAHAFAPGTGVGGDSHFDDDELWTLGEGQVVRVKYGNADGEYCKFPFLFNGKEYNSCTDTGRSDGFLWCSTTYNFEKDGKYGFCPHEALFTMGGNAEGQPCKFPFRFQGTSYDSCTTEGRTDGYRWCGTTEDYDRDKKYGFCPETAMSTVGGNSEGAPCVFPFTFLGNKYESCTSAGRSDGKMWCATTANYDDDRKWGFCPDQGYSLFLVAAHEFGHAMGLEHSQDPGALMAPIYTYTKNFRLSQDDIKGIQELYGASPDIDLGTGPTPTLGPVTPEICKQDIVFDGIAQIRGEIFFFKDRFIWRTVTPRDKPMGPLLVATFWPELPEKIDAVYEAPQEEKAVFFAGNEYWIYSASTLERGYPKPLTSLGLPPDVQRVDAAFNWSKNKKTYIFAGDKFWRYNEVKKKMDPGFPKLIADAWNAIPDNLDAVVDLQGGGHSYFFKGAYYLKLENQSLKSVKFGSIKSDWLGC
Description: Inhibition of human Matrix metalloprotease-2 (gelatinase-A)

Compound `CNC(=O)[C@H](Cc1ccccc1)NC(=O)Nc1nnc(S)s1` returned a Ki of 3 µM.

The compound `CNC(=O)[C@H](CO)NC(=O)Nc1n[nH]c(=S)s1` came in with a Ki of more than 200 µM.

`CNC(=O)[C@H](Cc1c(F)c(F)c(F)c(F)c1F)NC(=O)Nc1nnc(S)s1` came in with a Ki of 3 µM.

`NC(=O)[C@H](Cc1ccccc1)NC(=O)Nc1nnc(S)s1` registered a Ki of more than 200 µM.

As for `CNC(=O)CNC(=O)Nc1n[nH]c(=S)s1`, the inhibitory constant (Ki) was more than 100 µM.

Consider `CN(C)C(=O)[C@H](Cc1ccccc1)NC(=O)Nc1nnc(S)s1`, for which the Ki came out at 226 µM.
